This note sets out measurements from patent US20130035314A1, “METHODS AND KITS FOR DETECTING RISK FACTORS FOR DEVELOPMENT OF JAW OSTEONECROSIS AND METHODS OF TREATMENT THEREOF” (priority 2010, published 2013).

SMILES strings stand for the structures.

Series [1] in a line: Cohort study of multiple myeloma patients on IV BP: risk factors for BONJ (univariate and multivariate logistic regression). The format is in vivo, human. The procedure:
Multiple myeloma patients who were on intravenous BP (zoledronate or pamidronate) were recruited to voluntarily participate in this Institution Review Board (IRB) approved study. These patients signed informed consents and were followed routinely in the outpatient clinic. In addition to MM treatments, patients received either pamidronate 90mg or zoledronate 4mg IV monthly. Demographic and clinical information were verified from reviewing the medical records and tabled for analysis. Certain life style factors such as smoking at any time in the past, as well as certain co-morbidities such as diabetes mellitus, and prior drugs used were among the data collected on all patients.
Patients were considered to have BONJ if all of the following three characteristics are present (American Association of Oral and Maxillofacial Surgeons position paper, J Oral Maxillofac Surg, 65(3):369-76, 2007): 1) Current or previous treatment with a bisphosphonate; 2) Exposed bone in the maxillofacial region that has persisted for more than eight weeks; and 3) No history of radiation therapy to the jaws. […]
Baseline characteristics were compared by student's t-test or chi-square tests as appropriate. Allele frequencies deviations from Hardy-Weinberg Equilibrium (HWE) were assessed using chi-square tests with one degree of freedom. […]

Series [2] in a line: Chart review of BONJ incidence in bisphosphonate-treated cancer patients. The format is in vivo, human. The note with it: outpatient bone marrow transplant clinic, all patients had myeloma; pamidronate only. The text has this: Medical and dental charts at the University of Florida (UF) and the associated Veterans Administration Medical Center (VAMC) were reviewed. […] There were 21 males. […] Fourteen patients had modest increases in their serum creatinine concentrations. The average number of previous chemo/radiotherapy regimens was 3.5. […] Primary disease status was as follows: 12 patients in clinical remission, 5 with stable disease and 10 with progressive disease. Eight patients received statin therapy and 6 had diabetes mellitus. The median length of treatment with bisphosphonate (BP) before the diagnosis of BONJ was 28 months. BONJ involved the mandible in 21 patients, maxilla in 4 and both in 2 patients. The most frequent presentation was pain, swelling, and exposed bone (FIG. 1). […] The BONJ incidence differed among the 3 centers where these patients were treated. […] The incidence in the VAMC was 4.2% while the incidence in the Cancer Center clinic at UF was 1.7%. In the latter two groups, patients had mostly solid tumors. The results described herein are consistent with the reports of increased incidence of BONJ with greater duration of therapy and that myeloma patients are more likely to develop the complication than solid tumor patients.

Take `O=C1CCC(N2C(=O)c3ccccc3C2=O)C(=O)N1` (stereo not drawn) [Thalidomide]: the “Odds Ratio for BONJ” value in series [1] (multivariate logistic regression analysis of potential risk factors, MM patients on IV BP) was found to be 0.106.

On to `O=P(O)(O)C(O)(Cn1ccnc1)P(=O)(O)O` [zoledronate], for which the “association between BONJ and treatment” value in series [1] (univariate analysis, persisted in multivariate logistic regression, P=0.00029, 78 MM patients, 12 with BONJ) is given as “significant association”.

For the compound `NCCC(O)(P(=O)(O)O)P(=O)(O)O` [pamidronate], the BONJ incidence in series [2] worked out at 4%.
